Measurements taken from ChEMBL document CHEMBL3507680, “University of Dundee, Gates Library screen for HepG2 cell viability”.

Experiment: Human HepG2 cell viability assay in 384 well format
Format: toxicity, cell-based
Parameters: dose 125 nL, time 70.5 hour; concentration not given beside the values
Conditions: HepG2 cells, read-out: Inhibition

Structure (SMILES) | cytotoxicity at 70.5 h [%]
Cc1nc(C)c(CN2CCOC(CN(C)c3cccnn3)C2)s1 (configuration not stated) | -8.03
CCC1CN(C(=O)c2ccc(=O)[nH]n2)CCC(=O)N1Cc1ccccc1 (configuration not stated) | 1.68
Cn1ccc(C(=O)N2CCCC2c2cc(CCO)[nH]n2)n1 (configuration not stated) | -1.26
Cc1cccc(C(C(=O)NCc2nc(-c3cccnc3)no2)N(C)C)c1 (configuration not stated) | 19.5
COc1ccc(CN2CCC(c3nccnc3-n3ccnc3)CC2)cc1 | -5.25
NCCc1cccc(CN2CCN(c3cccc(Cl)c3)C(=O)C2)c1 | -7.22
O=C(O)[C@]12CCCN(Cc3ccncc3)[C@@H]1CCN(c1cnccn1)C2 | 8.46
Cc1noc(C)c1CNC(=O)C(C)Oc1ccccc1F (configuration not stated) | -4.89
Cc1cc(N2CCOC(c3ccccn3)C2)nc(N)n1 (configuration not stated) | -3.03
COc1cc(N(C)CCCn2nc(C)cc2C)ncn1 | -10.8
CC(C)CC(=O)NS(=O)(=O)c1ccc2c(c1)OCCCO2 | -8.04
Cn1nc(C#N)c2c1CN(C(=O)c1c[nH]cn1)CCC2 | -7.05
CC(C)CCOCCNC(=O)Nc1ccc(F)c(C(N)=O)c1 | -1.3
Cc1noc(C)c1CN1CC[C@H]2OCC[C@@]2(C(=O)N(C)C)C1 | -10.5
CCc1nc(CN2CCCC(NCc3cc(C)no3)C2)no1 (configuration not stated) | -8.45
CNc1snc(C)c1C(=O)N1CCCC(n2cccn2)C1 (configuration not stated) | -15
CCN(CC)C(=O)CCn1ncc2c(Cl)cccc21 | -10.4
COc1c(CC2CC(CO)=NO2)c(Br)c2c(c1OC)OCO2 (configuration not stated) | -0.342
CC(C)c1ccc(C2CC(=O)Nc3c2cnn3C)cc1 (configuration not stated) | -15.6
O=C(c1ccn(-c2ccc(F)cc2)n1)N1CCCC(n2ccnc2)C1 (configuration not stated) | -6.02
O=C(c1ccc(F)cc1)N1C[C@@H]2CN(c3ncccn3)C[C@@H]2C1 | -6.82
Cc1nc2ccccc2nc1CN(C)CC1CCCN1c1cccnn1 (configuration not stated) | 3.52
CN(C)c1nc(N2CCCC2)nc2c1CCN(C(=O)c1ccoc1)CC2 | 0.617

Structure (SMILES) | cytotoxicity at 70.5 h [%]
NCc1cccc(-c2cccnc2C(=O)NCCCN2CCOCC2)c1 | -3.76
Cc1cc(C)nc(N2CCC(C(=O)O)(n3ccc(C(C)(C)C)n3)CC2)n1 | -10.1
CN1C(=O)CC(c2ccncc2)C12CCN(c1ncccn1)CC2 (configuration not stated) | -0.583
CNC(=O)CNC(=O)CC1C(=O)NCCN1Cc1ccccc1C (configuration not stated) | -5.79
c1ccc(O[C@H]2CC[C@H]3[C@H]2OCCN3Cc2nccs2)nc1 | -9.23
Cc1n[nH]c(C2CN(CCNC3CCCCC3)CCO2)n1 (configuration not stated) | 3.49
NC(=O)c1ccc(CNC2CCCSC2)cc1 (configuration not stated) | -1.72
CC(CNC(=O)C1(c2ccc(F)cc2)CC1)CN1CCCC1=O (configuration not stated) | 15.4
Cn1cccc1C(=O)N1CCC2(CC1)CN(c1ccsc1)C(=O)CO2 | -15.9
Cc1noc(C)c1S(=O)(=O)NCC(O)c1ccc2c(c1)CCO2 (configuration not stated) | 17.6
Cc1n[nH]c(C)c1C1COCCN1C(=O)c1ccccc1 (configuration not stated) | -8.5
Cc1cc(C(=O)N2CCCCC2c2nc(C)cs2)[nH]n1 (configuration not stated) | -7.87
COc1ccccc1[C@@H]1CN(Cc2cnc(N(C)C)nc2)C[C@H]1C(=O)O | -6.22
c1cnc(NC[C@H]2OC[C@@H]3CCN(Cc4ccsc4)C[C@@H]32)nc1 | -6.36
Cc1cc(NC(=O)Cn2ccc(-c3ccc4c(c3)OCO4)n2)n(C)n1 | -13.2
COc1ccc(C(=O)N2CCCCC2c2nccs2)c(OC)c1 (configuration not stated) | -6.39
Nc1ncc(C(=O)N2CCCC(N)CC2)c(-c2ccccc2)n1 (configuration not stated) | 7.49
Cc1nn(Cc2ccc(C(=O)NCCCN3CCCC3=O)o2)c(C)c1Cl | -10.6
CC(C)n1cc(N2CC(C(=O)N3CCc4ccccc4C3)CC2=O)cn1 (configuration not stated) | 26.3
Nc1ncccc1CN1C[C@H]2OC(=O)N(Cc3ccccn3)[C@H]2C1 | -3.5
CCN1CCN(C[C@@H]2CN(c3ncccc3Cl)C[C@@H]2CO)CC1 | -3.91
CSCCC(=O)N1CCC(c2nccn2Cc2cscn2)CC1 | -5.4
COc1cccc([C@H]2CN(CCCS(=O)(=O)N(C)C)C[C@@H]2N)c1 | -3.42

Structure (SMILES) | cytotoxicity at 70.5 h [%]
CCn1nc(C)c2c1cnn2CCNS(=O)(=O)Cc1ccccc1 | 11.3
COCCO[C@@H]1C[C@H]2CN(C(=O)c3cccnc3)CCN2C1 | -6.81
CCOC1CC2(CCN(c3cnccn3)CC2)c2ccccc21 (configuration not stated) | -4.37
CC(O)CN1CCC(CN(C)CCC(=O)NC2CCCC2)CC1 (configuration not stated) | -1.49
CCOCCCNC(=O)CN(c1ccc(F)c(F)c1)S(C)(=O)=O | -12.9
O=C(NCCN1CCCCC1)c1nc(-c2ccc3cc[nH]c3c2)no1 | -4.34
O=C(CCc1ccsc1)N1CCC(C(=O)O)(c2ccccc2)CC1 | -0.12
Cc1cc(C)n(CC2CCCN2Cc2cccc(C#N)c2)n1 (configuration not stated) | -3.89
CC(C)N1CCCC(C(=O)NCCc2csc(-c3ccncc3)n2)C1 (configuration not stated) | 22
CC(Cn1cccn1)NC(=O)NCc1ccc(S(N)(=O)=O)cc1 (configuration not stated) | -7.93
CN(C)C(=O)c1cn2cc(-c3ccccc3Cl)n(CC3CC3)c(=O)c2n1 | -3.22
CN(CC(F)(F)F)C(=O)CNC(=O)N1CCCC(N(C)C)C1 (configuration not stated) | -8.19
CC(C)(NC(=O)NCc1cccc(Br)c1)C(=O)O | -9.51
CCC(NC(=O)CCNC(=O)c1ccccc1F)c1cc(C)ccn1 (configuration not stated) | -0.798
CC(=O)Nc1ccc2nc(-c3nccn3CC(C)(C)CO)ccc2c1 | -11
CCS(=O)(=O)N1CCC2(CN(c3ccsc3)C(=O)CN2C)C1 (configuration not stated) | -124
CN(C)c1nc(N2CCCC2)nc2c1CCN(C(=O)c1ccco1)CC2 | -7.2
Cc1noc2nc3c(c(C(=O)/N=c4\[nH]ncs4)c12)CCC3 | 25.6
CCOC(=O)NCCC(O)c1ccoc1 (configuration not stated) | -11.9
CNc1ncc2c(n1)CN(C1CCCC1)C2=O | -9.4
COC(=O)c1cc(OCC2CCC2)cc(C(=O)N[C@H]2CCCC[C@@H]2O)c1 | -8.47
CC(C)C(=O)N1CCCC(Cc2ccccn2)C1 (configuration not stated) | -1.35
COC(=O)CS(=O)(=O)CCC(=O)N1CCCC1c1ccsc1 (configuration not stated) | -2.16

Structure (SMILES) | cytotoxicity at 70.5 h [%]
CS(=O)(=O)c1ccc2c(c1)nc1n2[C@@H](CNCc2cccnc2)COC1 | -6.64
CCN(CCn1cccn1)Cc1nc(-c2ccccc2F)oc1C | -7.43
CN1CCC(Oc2ccc(NC(=O)c3ccccc3Br)cc2)CC1 | -7.15
COCCNC1(c2ccc(Cl)cc2)CCOCC1 | 11
CC(=O)N1CC(C(=O)Nc2cccc(OC(F)F)c2)C1 | -3.71
CCOC(=O)CC(C)Nc1nc(C(C)(C)C)nc2c1cnn2C (configuration not stated) | 22.1
CC(C)CC(=O)N1CCC2(CC1)COCCN2Cc1ccc(F)cc1 | -11.1
Cc1ccc(S(=O)(=O)NCCNc2cc(-n3cccc3)ncn2)c(C)c1 | -0.584
CCN(CCc1nccs1)C(=O)c1ncoc1C | -13.2
COCCC(=O)N1CCN(CC2CC2)c2ncccc2C1 | 8.88
O=C1CO[C@@H]2CN(CC3CCOCC3)C[C@H]2N1CC1CC1 | -2.81
CC(C)C(C)NC(=O)Nc1ccc(F)c(C(N)=O)c1 (configuration not stated) | -3.91
O=C(c1ccc(F)cc1Cl)N1CCC(Nc2cccnn2)CC1 | -7.6
CCN1C[C@H]2[C@@H](C1)N(c1ncc(F)cn1)CC[C@H]2OC | 14.2
CNC(=O)NC(=O)CN1CCN(CC2CC2)c2ccccc21 | 1.66
COc1c(C)cnc(CN2CCCC(Cn3nc(C)nc3C)C2)c1C (configuration not stated) | -3.59
O=C(Nc1nc2c(s1)CN(S(=O)(=O)C1CC1)CC2)c1ccsc1 | -12.1
CCOC(=O)N(C)C1CCN(Cc2cnc3ccccn23)CC1 | -4.79
Cc1occc1C(=O)NCC(=O)N(C)CCCOc1ccccc1 | -1.18
Cc1noc([C@H]2CC[C@@H]3[C@@H](CCN3c3ncccn3)O2)n1 | -6.01
CC(C)OCCCN(Cc1ccncc1)Cc1cccc(F)c1F | 22.3
Cc1nccn1-c1cc(CNC(=O)C2CCC(=O)NC2)ccn1 (configuration not stated) | 12.3
COc1ccccc1CN1C(=O)O[C@@H]2CN(Cc3cccc(C)n3)C[C@@H]21 | 20.9

Structure (SMILES) | cytotoxicity at 70.5 h [%]
CN(CCc1nc(-c2cccc(Cl)c2)no1)CCn1cccn1 | -5.46
C[C@@H]1C[C@@H]2CCN(C(=O)c3cnccn3)C[C@H]2O1 | -0.399
Cc1cc(CN(C)C(=O)NCc2cccc(N3CCCC3=O)c2)no1 | -25.6
O=C(NCCN1CCOCC1)NCC(O)c1cccc(F)c1 (configuration not stated) | -3.47
COCCN1C(=O)C[C@@H]2[C@H]1CCN2C(=O)COc1ccccc1 | -20.9
CCC(C)(C)C1CCCN1C(=O)c1coc(S(=O)(=O)NC)c1 (configuration not stated) | 6.9
COCCN1CC[C@]2(CN(Cc3cccnc3)C[C@H]2C)C1=O | -10.8
c1ccc(C(c2ccccc2)N2CCN(CCn3cncn3)CC2)cc1 | -10.4
Cc1ccc(N2CC[C@H]3OCC[C@@]3(C(=O)N3CCCC3)C2)nn1 | -9.8
O=C(NCCn1ccnc1)N1CCCC1c1cccs1 (configuration not stated) | 2.2
Cc1noc(C)c1-c1cncc(C2CCCN2Cc2ccncc2)n1 (configuration not stated) | -16.4
Cc1ccc2nc3n(c2c1)[C@@H](CNCc1nccs1)COC3 | -5.06
CN(C)C(=O)C1CCCN1CCCNC(=O)c1ccccc1Cl (configuration not stated) | 4.52
N#CC1(NC(=O)c2ccc(-c3nc(C4CC4)n[nH]3)cc2)CC1 | -12.9
Cc1ccc(S(=O)(=O)NC(=O)c2cccc3c2OCCO3)c(C)c1 | -3.86
NC(=O)c1csc(N2CCCC(c3n[nH]c(=O)n3-c3ccccc3)C2)n1 (configuration not stated) | -6.33
CC(C)NC(=O)c1n[nH]c(-n2cnnc2)n1 | -0.175
CN(C)CC1(O)CCCN(C(=O)c2ccccc2-n2cncn2)C1 (configuration not stated) | -3.77
CNS(=O)(=O)c1cccc(C(C)NCc2cccc(O)c2)c1 (configuration not stated) | -11.9
Cc1ccc(CN2CC[C@H]3NC(=O)CC[C@@H]32)o1 | -6.53
